The results in this text go back to a melting point compilation (Tetko et al.; mined from patent text by program, amines drawn as free bases though some values may be those of a salt).

Turning to `CC(=O)NC(=O)c1cn(Cc2ccccc2)nc1OCc1ccc(OCc2nc(-c3ccco3)oc2C)cc1`, the melting point (commonly the temperature, or range, at which the solid turns liquid) was 193 to 194 °C.

Turning to `CN(CCN(C)c1ccc(OS(=O)(=O)C(F)(F)F)nc1)c1ccc(OS(=O)(=O)C(F)(F)F)nc1`, the melting point is 146 to 148 °C. On to `CS(=O)(=O)OCc1cc(-c2ccc3c(c2)CCO3)nn(Cc2ccc(Cl)cc2)c1=O`, for which the melting point lay in the range of 69 to 70 °C. With `O=C(c1cc(-c2ccc(Cl)cc2)c(N2CCOCC2)s1)c1ccc(Cl)cc1Cl`, the melting point stood at 110 °C. With `C[C@@H](CSC(F)(F)C(F)F)[C@](O)(Cn1cncn1)c1ccc(Cl)cc1Cl` the figure was 61 to 63 °C. Take `O=Cc1c(Cl)nc(-c2ccccc2)n1Cc1ccc(Br)cc1`: the melting point lay in the range of 92 to 95 °C. Turning to `CC(S)=C(C#N)C(=O)Nc1ccc(C(F)(F)F)cc1`, the melting point lay within 183 to 184 °C. Next, `NCc1[nH]c2ccc(Cl)cc2c1-c1c(F)cccc1F`: 199 to 200 °C. Next, `CC1(C)CC(=O)Nc2cc3nc(-c4ccc(C#N)cc4)[nH]c3cc21`: 228 to 233 °C; `CN(Cc1ccc(Cl)cc1)C(=O)CC12CC3CC(CC(C3)C1)C2`: 75 to 76 °C.

Take `CN(c1cccc2cc(C3=NCC(CN4CCOCC4)S3)[nH]c12)S(=O)(=O)c1cccnc1` (stereo not drawn): the melting point was 234 to 236 °C.

On to `CC12CCC(C(=Cc3ccccc3[N+](=O)[O-])C1=O)C2(C)C` (stereo not drawn), for which the melting point was determined as 118 °C. With `c1ccc2c(c1)CCc1ccc(-c3nnn[nH]3)cc1S2`, the melting point was found to be 205 °C. Compound `COc1ccc(C(=O)O)c2c1CCCC2` registered a melting point of 214 to 215 °C. For the compound `NCc1ccc2c(c1)c(C1CCN(CCN3CCNC3=O)CC1)cn2-c1ccc(F)cc1`, the melting point fell in the range of 171 to 175 °C. Next, `N#CCC1CCN(C(c2ccccc2)c2ccccc2)CC1`: 103 to 104 °C.

With `COc1cc(OC)c(C=CC(=O)c2ccc(S(N)(=O)=O)cc2)cc1C#Cc1ccccc1N`, the melting point was in the range of 167 to 169 °C. The compound `CC(=C1SC(=O)NC1=O)c1ccc(OCCOc2c(-c3ccc(F)c(F)c3)n(C)c3ccc(F)cc3c2=O)c(Cl)c1` had a melting point of 215 to 218 °C. Next, `CC(C)(C)c1cc2c(cc1O)C(C)(C)CC2(C)C`: 114 °C. Turning to `NC(=O)C(CCN1CC[C@@H](OCc2cccc(Cl)c2)C1)(c1ccccc1)c1ccccc1`, the melting point fell in the range of 91 to 93 °C. Compound `CNC(=O)c1nn(-c2ccc(Cl)cc2)c(=O)c2c(N)scc12` showed a melting point of 192 to 194 °C. Next, `CC(C)(C)C(OC(=O)Nc1ccccc1)C(=CC1CCCCC1)n1cncn1` (stereo not drawn): 156 °C. The compound `Cc1[nH]c(C(=O)Nc2ccc3[nH]ccc3c2)c(C)c1-c1nc2ccc(C(=O)c3ccccc3)cc2[nH]1` returned a melting point of 167 to 169 °C. With `O=C(O)C(=O)c1cn2c3c(cccc13)CCC2` the figure was 152 to 155 °C; with `COc1cc(C(=O)Cc2ccccc2C)ccc1O`, 79 to 81 °C; with `FC(F)(F)c1cc(-c2ccc(Cl)c(Cl)c2)nc2ccnn12`, 130 to 131 °C. Compound `CC(=O)NC[C@H]1CN(c2ccc(N3CCC(=CC4(C#N)CC4)CC3)c(F)c2)C(=O)O1` displayed a melting point of 175 to 179 °C.

Consider `Cc1nn(C)c(N)c1C#N`, for which the melting point was 193 to 195 °C. With `CCN(CC)CCN(C)CCC1CCCCN1C(=O)N1c2ccccc2NC(=O)c2csc(C)c21` (stereo not drawn), the melting point was 131 to 133 °C. Next, `COc1cccc(N(c2ccccc2)c2ccc(-c3ccc(N(c4ccccc4)c4cccc(OC)c4)cc3)cc2)c1`: 120 to 125 °C.

The compound `O=C(Nc1ccc(Oc2ccc(C(F)(F)F)cc2)cc1)Nc1nonc1-c1ccc(Cl)cc1` showed a melting point of 208 °C. `CCCCn1c2c(c3cc(OC)c(OC)cc3c1=O)C(=O)c1cc3c(cc1-2)OCO3` returned a melting point of 280 to 284 °C. Consider `CCCCc1ccc(NCC)c(C(=O)C(=O)OC(=O)C(=O)c2cc(CCCC)ccc2NCC)c1`, for which the melting point is 130 to 132 °C.

`COc1cccc(N(C)C(=S)Oc2ccc3ccccc3c2)n1` returned a melting point of 95.5 to 97 °C.

`O=S1(=O)c2ccccc2N(c2ccc(O)cc2)c2ccccc21` registered a melting point of 308 to 311 °C. In the case of `CCc1cccc(-c2[nH]c(C(C)C)nc2-c2cccc(-c3ccc(S(C)(=O)=O)cc3)c2)n1`, the melting point lay in the range of 108 to 110 °C. For `CC(C)[C@H](N)C(=O)N[C@@H](Cc1ccccc1)C(O)[C@H](Cc1ccccc1)NC(=O)[C@@H](N)C(C)C`, the melting point was 131 to 132 °C.

`CC(=O)c1ccc2sc3ccc(C(C)=O)cc3c2c1` came in with a melting point of 207 to 210 °C. For `CC(=O)OC1CC2=CCC3C4CCCC4(C)CCC3C2(C)C(OC(C)=O)C1` (stereo not drawn), the melting point was in the range of 163 to 165 °C. Consider `CCCCCC1CCC(C2CCC(CC(=O)CC)CC2)CC1` (stereo not drawn), for which the melting point turned out to be 107 °C.

In turn, `COC(=O)CC1(C)C(=O)N(C)c2ccc(OC)cc21` (stereo not drawn) returned a melting point of 83 to 84 °C. `CC(Cc1c[nH]c2ccccc12)(NC(=O)OC1C2CC3CC(C2)CC1C3)C(=O)NC1CCCCC1C(=O)O` (stereo not drawn): the melting point was 230 to 234 °C. With `COc1ccc(C(=O)Nc2ccccc2C(C)c2ccccn2)cc1` (stereo not drawn) the figure was 125 to 126 °C. For `Nc1cccc(CN2CCC(OC(=O)c3ccccc3)CC2)c1`, the melting point lay within 95 to 97 °C. In turn, `Cc1c2c(cn1C)NC(=O)C(OC(=O)CCCN1C(=O)c3ccccc3C1=O)N=C2c1ccccc1` (stereo not drawn) yielded a melting point of 210 to 212 °C.

Compound `CNc1ccc([N+](=O)[O-])cc1C(F)(F)F` yielded a melting point of 99 to 101 °C.

For the compound `CCCNC(=S)NCCCn1c(CCOC)nc2c(N)nc3ccccc3c21`, the melting point is 172 to 173 °C.

`CC(C#N)CNc1ccccc1[N+](=O)[O-]` (stereo not drawn) gave a melting point of 44 to 47 °C. Consider `CC(=O)OC1CC2C(=O)CC3C(CCC4(C)C(C(C)C=CC(C)C(C)C)CCC34)C2(C)CC1OC(C)=O` (stereo not drawn), for which the melting point lay in the range of 196 to 197 °C. In the case of `Clc1ccc(Cl)c(CN2CCNc3ncc(I)cc32)c1`, the melting point stood at 169 °C. On to `O=C1c2ccccc2N(Cc2cccs2)C2=NCCN12`, for which the melting point lay within 124 to 127 °C. Regarding `N#Cc1ncc(F)cc1OC1SCC(O)C(O)C1O` (stereo not drawn), the melting point amounted to 94 °C. As for `Clc1cc(NC2CCCC2)nc(NC2CCCC2)n1`, the melting point was 94 to 98 °C. The compound `Cc1n[nH]c(=O)n1-c1ccc(OC(F)(F)C(F)F)cc1` showed a melting point of 204 to 205 °C.

As to `O=C(Oc1ccc(Cl)c(OCC2CC2(Cl)Cl)c1)N1CCCC1` (stereo not drawn), the melting point is 72 to 74 °C.

In turn, `CCCCCCCC[C@H]1CC[C@H](C(=O)O)CC1` had a melting point of 36 to 37 °C.

Regarding `O=c1[nH]c2ccc(-c3cccc([N+](=O)[O-])c3)cc2o1`, the melting point lay in the range of 280 to 281 °C.

Compound `CC(C)Cc1nc(Cc2ccccc2)c2c(c1O)COC2` came in with a melting point of 174 to 175 °C. For `N#Cc1ccc(CCC(N)=O)cc1`, the melting point is 220 °C. Compound `O=C(O)c1cnn2c(C(F)(F)F)cc(-c3ccc(C(F)(F)F)c(F)c3)nc12` came in with a melting point of 212 °C. As to `Clc1c(CN[C@H]2CC[C@@H](c3ccccc3)CC2)ccn2c(CC3CC3)nnc12`, the melting point is 171 °C. For `OC(Cn1ccnc1)(c1ccc(Cl)cc1)c1ccc(Cl)cc1`, the melting point lay within 208 to 210 °C. Next, `CC(C)Nc1cc2c(cc1C(=O)c1ccccc1)OCO2`: 77 to 78 °C; `CC(=O)OCc1cncc(COc2cc3c(=O)c(Cc4cccnc4)cn4c5ccc(Br)cc5c(c2)c34)c1`: 83.5 to 84.5 °C; `N=C(N)Nc1nc(C(=O)NCCCC(CC(=O)O)c2ccccc2)cs1` (racemic): 230 °C.

Take `CCOC(=O)c1cc(C(=O)OCC)c(N)[nH]1`: the melting point was in the range of 147 to 149 °C. The compound `Nc1c([N+](=O)[O-])cc(F)c(Cl)c1F` registered a melting point of 96 to 97 °C. Consider `CCCCc1oc2ccccc2c1C(=O)c1ccc2c(Br)c(OCc3nnn[nH]3)ccc2c1`, for which the melting point fell in the range of 160 to 162 °C. Take `O=S(=O)(Nc1ccc(OCc2ccc3ccccc3n2)cc1)c1cccc(C(F)(F)F)c1`: the melting point is 81 to 83 °C. Compound `Cc1cc(C2C(=O)Oc3c2cc(C(C)(C)C)cc3C(C)(C)C)cc(C)c1OC(=O)C(C)(C)C` (stereo not drawn) gave a melting point of 140 to 142 °C. With `CN1CCCCC1CCc1ccccc1NC(=O)c1ccoc1` (stereo not drawn) the figure was 114 to 116 °C; with `CCOC(=O)c1ncc2[nH]c3ccccc3c2c1CCOC`, 181 to 183 °C; with `Cc1c(C#N)n(-c2ccc(Cl)cc2)c(=O)n1C`, 138 to 140 °C.

In turn, `CN(C)NC(=O)N1CCC(Br)C1=O` (stereo not drawn) showed a melting point of 78 to 79 °C.

Compound `CC(C)(C)NC(=O)c1ccc(N2CCN(c3ccncc3)CC2)cc1` displayed a melting point of 214 to 217 °C. In the case of `COC(=O)C1=C(CBr)Nc2ncnn2C1c1cccs1` (stereo not drawn), the melting point turned out to be 155 °C. Regarding `NC(=O)c1ccccc1N1CCN(Cc2cn3cc(Cl)ccc3n2)CC1`, the melting point was in the range of 178 to 179 °C.

`CCCCCCCCCCCCNc1nccc(NCCCO)n1` returned a melting point of 58 to 59 °C. With `O=C(O)COc1ccc2c(c1)C[C@H](NC[C@H](O)c1cccc(Cl)c1)CCC2`, the melting point is 265 to 266 °C. As for `O=C(O)c1cn(C2CC2F)c2c(F)c(F)c(F)cc2c1=O` (stereo not drawn), the melting point fell in the range of 232 to 235 °C. With `CNc1nc(-c2ccccc2)c(-c2nc3ccccc3c(=O)n2-c2ccccc2OC)s1` the figure was 241 to 243 °C; with `COc1cc(C(C)=O)ccc1-c1ccccc1F`, 84 to 85 °C.

`CCC(CC)N(O)C(=O)Nc1ccc(C)c(NC(=O)N(O)C(CC)CC)c1`: the melting point is 175 to 177 °C.

Turning to `CCC1(CC)c2cc(C(=O)O)c(C(=O)O)cc2C(CC)(CC)N1C(=O)c1ccccc1`, the melting point was 244 to 246 °C. Consider `CC(=NO)c1cc2c3ccccc3[nH]c(=O)n2n1`, for which the melting point was 340 to 342 °C. Compound `C1=C(OCc2ccccc2)CCN(Cc2nc3ccccc3[nH]2)C1` yielded a melting point of 170 to 172 °C.

`Cc1ccc(-c2ncc(N(C)CCCCO)nc2-c2ccc(C)cc2)cc1` showed a melting point of 94 to 96 °C. Next, `CC(C)(C)OC(=O)N1CC(CCl)c2c1ccc1cc(C#N)ccc21` (stereo not drawn): 171 to 172 °C.
